Literature values as cited in paper PMC3433420 (PLoS ONE, 2012).
Read-outs that look alike come from different tables or passages of the source.

Experiments:
[1] = target: GRB7 SH2 domain (Homo sapiens, UniProt Q14451); design: 6X His; thioredoxin; made in house; host or cells: E. coli BL21(DE3)pLysS; conditions: Protein GRB7, most recent PM interactions, cited from earlier work
[2] = target: SH2 and PTB domains; conditions: most recent PM interactions, cited from earlier work
Excerpt: Supplement pone.0044471.s022.xlsx, sheet "Most recent PM interactions" | column: Kd || Supplement pone.0044471.s022.xlsx, sheet "All original PM interactions" | column: Kd

[3] = ref Jones et al. 2006 / Kaushansky et al. Mol Biosys 2008 / Kaushansky et al. Chem and Biol 2008
[4] = Protein BLK, ref Jones et al. 2006 / Kaushansky et al. Mol Biosys 2008 / Kaushansky et al. Chem and Biol 2008
[5] = Protein GRB10, ref Jones et al. 2006 / Kaushansky et al. Mol Biosys 2008 / Kaushansky et al. Chem and Biol 2008
[6] = Protein ITK, ref Jones et al. 2006 / Kaushansky et al. Mol Biosys 2008 / Kaushansky et al. Chem and Biol 2008
[7] = Protein PIK3R1-NC, ref Jones et al. 2006 / Kaushansky et al. Mol Biosys 2008 / Kaushansky et al. Chem and Biol 2008
[8] = Protein PIK3R3-NC, ref Jones et al. 2006 / Kaushansky et al. Mol Biosys 2008 / Kaushansky et al. Chem and Biol 2008
[9] = Protein PLCG2-NC, ref Jones et al. 2006 / Kaushansky et al. Mol Biosys 2008 / Kaushansky et al. Chem and Biol 2008
[10] = Protein RASA1-N, ref Jones et al. 2006 / Kaushansky et al. Mol Biosys 2008 / Kaushansky et al. Chem and Biol 2008
[11] = Protein SRC, ref Jones et al. 2006 / Kaushansky et al. Mol Biosys 2008 / Kaushansky et al. Chem and Biol 2008
[12] = Protein SYK-NC, ref Jones et al. 2006 / Kaushansky et al. Mol Biosys 2008 / Kaushansky et al. Chem and Biol 2008
[13] = Protein YES1, ref Jones et al. 2006 / Kaushansky et al. Mol Biosys 2008 / Kaushansky et al. Chem and Biol 2008
[14] = ref Jones et al. 2006 / Kaushansky et al. Chem and Biol 2008
[15] = Protein ABL2, ref Jones et al. 2006 / Kaushansky et al. Chem and Biol 2008
[16] = Protein BLK, ref Jones et al. 2006 / Kaushansky et al. Chem and Biol 2008
[17] = Protein FGR, ref Jones et al. 2006 / Kaushansky et al. Chem and Biol 2008
[18] = Protein LYN, ref Jones et al. 2006 / Kaushansky et al. Chem and Biol 2008
[19] = Protein SRC, ref Jones et al. 2006 / Kaushansky et al. Chem and Biol 2008
[20] = Protein SYK-NC, ref Jones et al. 2006 / Kaushansky et al. Chem and Biol 2008
[21] = Protein YES1, ref Jones et al. 2006 / Kaushansky et al. Chem and Biol 2008

Sequence of GRB7 SH2 domain (Q14451 431-527 limits assumed): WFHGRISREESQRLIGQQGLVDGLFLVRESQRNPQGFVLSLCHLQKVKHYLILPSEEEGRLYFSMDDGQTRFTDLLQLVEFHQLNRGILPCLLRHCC

## DDTFLPVPEpYINQSVPKd [ErbB1 1092]
[1]; [3]
  Kd: 1.99 µM
[2]; Protein ABL1, ref Jones et al. 2006 / Kaushansky et al. Mol Biosys 2008 / Kaushansky et al. Chem and Biol 2008
  Kd: 0.92 µM
[2]; Protein ABL2, ref Jones et al. 2006 / Kaushansky et al. Mol Biosys 2008 / Kaushansky et al. Chem and Biol 2008
  Kd: 0.15 µM
[2]; [4]
  Kd: 0.3 µM
[2]; Protein GRB2, ref Jones et al. 2006 / Kaushansky et al. Mol Biosys 2008 / Kaushansky et al. Chem and Biol 2008
  Kd: 0.2 µM
[2]; [5]
  Kd: 1.3 µM
[2]; [6]
  Kd: 0.22 µM
[2]; Protein NCK2, ref Jones et al. 2006 / Kaushansky et al. Mol Biosys 2008 / Kaushansky et al. Chem and Biol 2008
  Kd: 1.1 µM
[2]; Protein PIK3R1-N, ref Jones et al. 2006 / Kaushansky et al. Mol Biosys 2008 / Kaushansky et al. Chem and Biol 2008
  Kd: 1.08 µM
[2]; [7]
  Kd: 0.67 µM
[2]; Protein PIK3R2-N, ref Jones et al. 2006 / Kaushansky et al. Mol Biosys 2008 / Kaushansky et al. Chem and Biol 2008
  Kd: 0.45 µM
[2]; Protein PIK3R2-NC, ref Jones et al. 2006 / Kaushansky et al. Mol Biosys 2008 / Kaushansky et al. Chem and Biol 2008
  Kd: 1.41 µM
[2]; Protein PIK3R3-N, ref Jones et al. 2006 / Kaushansky et al. Mol Biosys 2008 / Kaushansky et al. Chem and Biol 2008
  Kd: 0.51 µM
[2]; [8]
  Kd: 1.02 µM
[2]; [9]
  Kd: 1.63 µM
[2]; [10]
  Kd: 0.18 µM
[2]; [11]
  Kd: 1.79 µM
[2]; Protein SYK-C, ref Jones et al. 2006 / Kaushansky et al. Mol Biosys 2008 / Kaushansky et al. Chem and Biol 2008
  Kd: 1.92 µM
[2]; [12]
  Kd: 0.91 µM
[2]; Protein VAV2, ref Jones et al. 2006 / Kaushansky et al. Mol Biosys 2008 / Kaushansky et al. Chem and Biol 2008
  Kd: 0.54 µM
[2]; [13]
  Kd: 0.34 µM

## TEEEDEDEEpYEYMNRRR [ErbB3 1197]
[1]; [14]
  Kd: 0.13 µM
[2]; Protein ABL1, ref Jones et al. 2006 / Kaushansky et al. Chem and Biol 2008
  Kd: 1.43 µM
[2]; [15]
  Kd: 1.11 µM
[2]; [16]
  Kd: 0.07 µM
[2]; [17]
  Kd: 0.71 µM
[2]; [18]
  Kd: 1.07 µM
[2]; [19]
  Kd: 0.87 µM
[2]; [20]
  Kd: 0.89 µM
[2]; [21]
  Kd: 0.13 µM

## RLLDIDETEpYHADGGKVd [ErbB2 877]
[1]; ref Kaushansky et al. Chem and Biol 2008
  Kd: 1.2 µM
[2]; Protein BLK, ref Kaushansky et al. Chem and Biol 2008
  Kd: 0.72 µM
[2]; Protein PLCG2-N, ref Kaushansky et al. Chem and Biol 2008
  Kd: 0.65 µM
[2]; Protein PLCG2-NC, ref Kaushansky et al. Chem and Biol 2008
  Kd: 1.1 µM
[2]; Protein RASA1-NC, ref Kaushansky et al. Chem and Biol 2008
  Kd: 1.4 µM
[2]; Protein YES1, ref Kaushansky et al. Chem and Biol 2008
  Kd: 1.89 µM

## LPSPTDSNFpYRALMDEEd [ErbB1 998]
[1]; [3]
  Kd: 0.76 µM
[2]; [4]
  Kd: 0.19 µM
[2]; Protein FES, ref Jones et al. 2006 / Kaushansky et al. Mol Biosys 2008 / Kaushansky et al. Chem and Biol 2008
  Kd: 1.23 µM
[2]; [5]
  Kd: 1.69 µM
[2]; [6]
  Kd: 0.28 µM
[2]; [7]
  Kd: 0.24 µM
[2]; [8]
  Kd: 0.97 µM
[2]; [9]
  Kd: 1.39 µM
[2]; [10]
  Kd: 0.71 µM
[2]; Protein RASA1-NC, ref Jones et al. 2006 / Kaushansky et al. Mol Biosys 2008 / Kaushansky et al. Chem and Biol 2008
  Kd: 1.65 µM
[2]; Protein SH2B3, ref Jones et al. 2006 / Kaushansky et al. Mol Biosys 2008 / Kaushansky et al. Chem and Biol 2008
  Kd: 1.36 µM
[2]; Protein SHC1-PTB, ref Jones et al. 2006 / Kaushansky et al. Mol Biosys 2008 / Kaushansky et al. Chem and Biol 2008
  Kd: 1.15 µM
[2]; Protein SHC2-PTB, ref Jones et al. 2006 / Kaushansky et al. Mol Biosys 2008 / Kaushansky et al. Chem and Biol 2008
  Kd: 0.98 µM
[2]; [11]
  Kd: 1.14 µM
[2]; [12]
  Kd: 0.91 µM
[2]; [13]
  Kd: 0.72 µM
[2]; Protein ZAP70-NC, ref Jones et al. 2006 / Kaushansky et al. Mol Biosys 2008 / Kaushansky et al. Chem and Biol 2008
  Kd: 1.65 µM

## AFSPAFDNLpYYWDQDPPE [ErbB2 1221]
[1]; [14]
  Kd: 0.53 µM
[2]; [15]
  Kd: 0.5 µM
[2]; [16]
  Kd: 0.63 µM
[2]; Protein BLNK, ref Jones et al. 2006 / Kaushansky et al. Chem and Biol 2008
  Kd: 1.56 µM
[2]; [17]
  Kd: 0.42 µM
[2]; Protein GRB10, ref Jones et al. 2006 / Kaushansky et al. Chem and Biol 2008
  Kd: 0.12 µM
[2]; Protein GRB14, ref Jones et al. 2006 / Kaushansky et al. Chem and Biol 2008
  Kd: 1.4 µM
[2]; Protein ITK, ref Jones et al. 2006 / Kaushansky et al. Chem and Biol 2008
  Kd: 0.78 µM
[2]; [18]
  Kd: 0.93 µM
[2]; Protein PIK3R1-NC, ref Jones et al. 2006 / Kaushansky et al. Chem and Biol 2008
  Kd: 1.16 µM
[2]; Protein PIK3R2-N, ref Jones et al. 2006 / Kaushansky et al. Chem and Biol 2008
  Kd: 0.95 µM
[2]; Protein PIK3R3-C, ref Jones et al. 2006 / Kaushansky et al. Chem and Biol 2008
  Kd: 1.91 µM
[2]; Protein PLCG1-N, ref Jones et al. 2006 / Kaushansky et al. Chem and Biol 2008
  Kd: 1.93 µM
[2]; Protein PLCG1-NC, ref Jones et al. 2006 / Kaushansky et al. Chem and Biol 2008
  Kd: 1.96 µM
[2]; Protein PLCG2-N, ref Jones et al. 2006 / Kaushansky et al. Chem and Biol 2008
  Kd: 0.17 µM
[2]; Protein RASA1-N, ref Jones et al. 2006 / Kaushansky et al. Chem and Biol 2008
  Kd: 0.19 µM
[2]; Protein RASA1-NC, ref Jones et al. 2006 / Kaushansky et al. Chem and Biol 2008
  Kd: 0.51 µM
[2]; Protein SH2D3A, ref Jones et al. 2006 / Kaushansky et al. Chem and Biol 2008
  Kd: 1.28 µM
[2]; Protein SH2D3C, ref Jones et al. 2006 / Kaushansky et al. Chem and Biol 2008
  Kd: 0.16 µM
[2]; Protein SHB, ref Jones et al. 2006 / Kaushansky et al. Chem and Biol 2008
  Kd: 0.21 µM
[2]; Protein SHC1-PTB, ref Jones et al. 2006 / Kaushansky et al. Chem and Biol 2008
  Kd: 0.34 µM
[2]; Protein SHC2-PTB, ref Jones et al. 2006 / Kaushansky et al. Chem and Biol 2008
  Kd: 0.43 µM
[2]; Protein SHF, ref Jones et al. 2006 / Kaushansky et al. Chem and Biol 2008
  Kd: 0.34 µM
[2]; Protein SLA2, ref Jones et al. 2006 / Kaushansky et al. Chem and Biol 2008
  Kd: 1.44 µM
[2]; [19]
  Kd: 0.035 µM
[2]; Protein SUPT6H, ref Jones et al. 2006 / Kaushansky et al. Chem and Biol 2008
  Kd: 1.57 µM
[2]; Protein SYK-C, ref Jones et al. 2006 / Kaushansky et al. Chem and Biol 2008
  Kd: 0.54 µM
[2]; Protein SYK-N, ref Jones et al. 2006 / Kaushansky et al. Chem and Biol 2008
  Kd: 0.26 µM
[2]; [20]
  Kd: 0.3 µM
[2]; Protein TEC, ref Jones et al. 2006 / Kaushansky et al. Chem and Biol 2008
  Kd: 0.77 µM
[2]; Protein TXK, ref Jones et al. 2006 / Kaushansky et al. Chem and Biol 2008
  Kd: 1.23 µM
[2]; Protein VAV2, ref Jones et al. 2006 / Kaushansky et al. Chem and Biol 2008
  Kd: 1.75 µM
[2]; Protein VAV3, ref Jones et al. 2006 / Kaushansky et al. Chem and Biol 2008
  Kd: 1.13 µM
[2]; [21]
  Kd: 0.045 µM
[2]; Protein ZAP70-NC, ref Jones et al. 2006 / Kaushansky et al. Chem and Biol 2008
  Kd: 1.44 µM
